{
  "source": "PubChem BioAssay (NCI)",
  "assay_in_all_cases": "NCI-60 cell line screen, 48 h",
  "key": {"NCI-H226 lung": {"system": "NCI-H226 lung"}, "NCI-H23 lung": {"system": "NCI-H23 lung"}, "NCI-H460 lung": {"system": "NCI-H460 lung"}, "NCI-H522 lung": {"system": "NCI-H522 lung"}, "OVCAR-3 ovarian": {"system": "OVCAR-3 ovarian"}, "OVCAR-4 ovarian": {"system": "OVCAR-4 ovarian"}, "OVCAR-5 ovarian": {"system": "OVCAR-5 ovarian"}, "OVCAR-8 ovarian": {"system": "OVCAR-8 ovarian"}, "PC-3 prostate": {"system": "PC-3 prostate"}, "RPMI-8226 leukemia": {"system": "RPMI-8226 leukemia"}, "RXF 393 renal": {"system": "RXF 393 renal"}, "SF-268 CNS": {"system": "SF-268 CNS"}, "SF-295 CNS": {"system": "SF-295 CNS"}, "SF-539 CNS": {"system": "SF-539 CNS"}, "SK-MEL-2 melanoma": {"system": "SK-MEL-2 melanoma"}, "SK-MEL-28 melanoma": {"system": "SK-MEL-28 melanoma"}, "SK-MEL-5 melanoma": {"system": "SK-MEL-5 melanoma"}, "SK-OV-3 ovarian": {"system": "SK-OV-3 ovarian"}, "SN12C renal": {"system": "SN12C renal"}, "SNB-19 CNS": {"system": "SNB-19 CNS"}, "SNB-75 CNS": {"system": "SNB-75 CNS"}, "SR leukemia": {"system": "SR leukemia"}, "SW-620 colon": {"system": "SW-620 colon"}, "T-47D breast": {"system": "T-47D breast"}, "TK-10 renal": {"system": "TK-10 renal"}, "U251 CNS": {"system": "U251 CNS"}, "UACC-257 melanoma": {"system": "UACC-257 melanoma"}, "UACC-62 melanoma": {"system": "UACC-62 melanoma"}, "UO-31 renal": {"system": "UO-31 renal"}},
  "note": "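A five-concentration, 48-hour dose response in 96-well plates underlies each endpoint, interpolated linearly between surrounding concentrations. Abbreviation: GI50, concentration required for 50% inhibition of growth. At the TGI there is no net growth.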",
  "data": [
    {"smiles": "CCOC(=O)C1=C(N)N(c2ccccc2)C2=C(C(=O)CC(C)(C)C2)C1c1ccc(Cl)cc1Cl", "note": "(stereo not drawn)", "values": [
      {"measurement": "GI50", "setting": "NCI-H226 lung", "value": 23.4, "unit": "µM"},
      {"measurement": "TGI", "setting": "NCI-H226 lung", "value": "> 100", "unit": "µM"},
      {"measurement": "GI50", "setting": "NCI-H23 lung", "value": 25.1, "unit": "µM"},
      {"measurement": "TGI", "setting": "NCI-H23 lung", "value": "> 100", "unit": "µM"},
      {"measurement": "GI50", "setting": "NCI-H460 lung", "value": 13.9, "unit": "µM"},
      {"measurement": "TGI", "setting": "NCI-H460 lung", "value": "> 100", "unit": "µM"},
      {"measurement": "GI50", "setting": "NCI-H522 lung", "value": 22.2, "unit": "µM"},
      {"measurement": "TGI", "setting": "NCI-H522 lung", "value": "> 100", "unit": "µM"},
      {"measurement": "GI50", "setting": "OVCAR-3 ovarian", "value": 26.2, "unit": "µM"},
      {"measurement": "TGI", "setting": "OVCAR-3 ovarian", "value": "> 100", "unit": "µM"},
      {"measurement": "GI50", "setting": "OVCAR-4 ovarian", "value": 28.3, "unit": "µM"},
      {"measurement": "TGI", "setting": "OVCAR-4 ovarian", "value": "> 100", "unit": "µM"},
      {"measurement": "GI50", "setting": "OVCAR-5 ovarian", "value": 72.6, "unit": "µM"},
      {"measurement": "TGI", "setting": "OVCAR-5 ovarian", "value": "> 100", "unit": "µM"},
      {"measurement": "GI50", "setting": "OVCAR-8 ovarian", "value": 37.2, "unit": "µM"},
      {"measurement": "TGI", "setting": "OVCAR-8 ovarian", "value": "> 100", "unit": "µM"},
      {"measurement": "GI50", "setting": "PC-3 prostate", "value": 4.14, "unit": "µM"},
      {"measurement": "TGI", "setting": "PC-3 prostate", "value": "> 100", "unit": "µM"},
      {"measurement": "GI50", "setting": "RPMI-8226 leukemia", "value": 7.07, "unit": "µM"},
      {"measurement": "TGI", "setting": "RPMI-8226 leukemia", "value": "> 100", "unit": "µM"},
      {"measurement": "GI50", "setting": "RXF 393 renal", "value": 13.8, "unit": "µM"},
      {"measurement": "TGI", "setting": "RXF 393 renal", "value": "> 100", "unit": "µM"},
      {"measurement": "GI50", "setting": "SF-268 CNS", "value": 53.2, "unit": "µM"},
      {"measurement": "TGI", "setting": "SF-268 CNS", "value": "> 100", "unit": "µM"},
      {"measurement": "GI50", "setting": "SF-295 CNS", "value": 20.3, "unit": "µM"},
      {"measurement": "TGI", "setting": "SF-295 CNS", "value": "> 100", "unit": "µM"},
      {"measurement": "GI50", "setting": "SF-539 CNS", "value": 37.8, "unit": "µM"},
      {"measurement": "TGI", "setting": "SF-539 CNS", "value": "> 100", "unit": "µM"},
      {"measurement": "GI50", "setting": "SK-MEL-2 melanoma", "value": 17, "unit": "µM"},
      {"measurement": "TGI", "setting": "SK-MEL-2 melanoma", "value": 58, "unit": "µM"},
      {"measurement": "GI50", "setting": "SK-MEL-28 melanoma", "value": 66.7, "unit": "µM"},
      {"measurement": "TGI", "setting": "SK-MEL-28 melanoma", "value": "> 100", "unit": "µM"},
      {"measurement": "GI50", "setting": "SK-MEL-5 melanoma", "value": 12.4, "unit": "µM"},
      {"measurement": "TGI", "setting": "SK-MEL-5 melanoma", "value": 25.6, "unit": "µM"},
      {"measurement": "GI50", "setting": "SK-OV-3 ovarian", "value": 33.5, "unit": "µM"},
      {"measurement": "TGI", "setting": "SK-OV-3 ovarian", "value": "> 100", "unit": "µM"},
      {"measurement": "GI50", "setting": "SN12C renal", "value": 30.8, "unit": "µM"},
      {"measurement": "TGI", "setting": "SN12C renal", "value": "> 100", "unit": "µM"},
      {"measurement": "GI50", "setting": "SNB-19 CNS", "value": 29.2, "unit": "µM"},
      {"measurement": "TGI", "setting": "SNB-19 CNS", "value": "> 100", "unit": "µM"},
      {"measurement": "GI50", "setting": "SNB-75 CNS", "value": 53.3, "unit": "µM"},
      {"measurement": "TGI", "setting": "SNB-75 CNS", "value": "> 100", "unit": "µM"},
      {"measurement": "GI50", "setting": "SR leukemia", "value": 14.7, "unit": "µM"},
      {"measurement": "TGI", "setting": "SR leukemia", "value": "> 100", "unit": "µM"},
      {"measurement": "GI50", "setting": "SW-620 colon", "value": 29, "unit": "µM"},
      {"measurement": "TGI", "setting": "SW-620 colon", "value": "> 100", "unit": "µM"},
      {"measurement": "GI50", "setting": "T-47D breast", "value": 10.4, "unit": "µM"},
      {"measurement": "TGI", "setting": "T-47D breast", "value": "> 100", "unit": "µM"},
      {"measurement": "GI50", "setting": "TK-10 renal", "value": 56.3, "unit": "µM"},
      {"measurement": "TGI", "setting": "TK-10 renal", "value": "> 100", "unit": "µM"},
      {"measurement": "GI50", "setting": "U251 CNS", "value": 24.6, "unit": "µM"},
      {"measurement": "TGI", "setting": "U251 CNS", "value": "> 100", "unit": "µM"},
      {"measurement": "GI50", "setting": "UACC-257 melanoma", "value": 28.8, "unit": "µM"},
      {"measurement": "TGI", "setting": "UACC-257 melanoma", "value": "> 100", "unit": "µM"},
      {"measurement": "GI50", "setting": "UACC-62 melanoma", "value": 12.6, "unit": "µM"},
      {"measurement": "TGI", "setting": "UACC-62 melanoma", "value": "> 100", "unit": "µM"},
      {"measurement": "GI50", "setting": "UO-31 renal", "value": 11.5, "unit": "µM"},
      {"measurement": "TGI", "setting": "UO-31 renal", "value": "> 100", "unit": "µM"}
    ]}
  ]
}
